The values below come from patent US20110218158A1, “DNA CYTOSINE DEAMINASE INHIBITORS” (priority 2008, published 2011).

The target of the assay is T1, APOBEC3G (Homo sapiens, UniProt Q9HC16).
T1 construct: expressed in transfected cells; crude lysate treated with RNase A
Kind of assay: Fluorescence-based APOBEC3G DNA cytosine deaminase assay for HTS, APOBEC3G containing cell lysate. In kind it is biochemical. Conditions: for inhibited cytosine deaminase activity (FIG. 5): LOPAC1280 library screened in quadruplicate, cell lysate. The text has this:
FIG. 4 contains a schematic of a fluorescence based APOBEC3G DNA cytosine deaminase activity assay. The single-strand DNA oligonucleotide substrate has 3 features: i) an APOBEC3G deamination target cite 5′CCCA (with the 3rd C strongly preferred by APOBEC3G), ii) a fluorescent 6-FAM label on the 5′ end (excitable by 490 nm wavelength light) and iii) a 6-FAM ‘quenching’ molecule TAMRA on the 3′ end. This intact ssDNA substrate emits low levels of background fluorescence because the 6-FAM is quenched by the nearby TAMRA. Low-molecular mass (LMM) APOBEC3G, derived from an RNase sensitive high-molecular mass (HMM) cellular complex, efficiently deaminates the indicated cytosine base yielding a uracil. Uracil DNA glycosylase excises the uracil base, which creates an a-basic site that is sensitive to hydrolytic attack by the hydroxide ion of NaOH or heated water (H2O). Finally, cleavage of the ssDNA frees 6-FAM from inhibition by TAMRA and results in fluorescence (490 nm light is used to excite 6-FAM and fluorescence is detected at 517 nm).
APOBEC3G containing cell lysates were prepared from near-confluent APOBEC3G expressing 293 stable cell line (211-21, Harris et al., Cell 2003). DMEM growth medium was aspirated and the cells suspended in 1xPBS, 1 mM EDTA, pH 7.4. The cells were pelleted at 1.2K rpm for 5-10 minutes. The supernatant was aspirated and the tube containing the pelleted cells was placed on ice. Thirty mL of lysis buffer (25 mM HEPES, pH7.4, 150 mM NaCl, 0.5% Triton X-100, 1 mM EDTA, 1 mM MgCl2, 1 mM ZnCl2, 10% Glycerol, and Roche EDTA free complete protease inhibitor (added before use)) was added per 3-5 g cell pellet along with 20 μg/mL RNase A (from Qiagen, catalog no. 19101, 100 mg/ml RNase A solution) and the cells suspended by pipetting. The cells were transferred to a cold homogenizer and homogenized for 10 strokes. […] The protein concentration in the cell lysate was quantified using a Bio-Rad protein assay kit or DC protein assay kit, following the manufacturer's instructions.
A fluorescence-based deaminase activity assay for HTS was performed as follows: 1) 20 μl of the crude cell lysate (15 μg protein, diluted in cell lysis buffer, pH7.4) was placed into 384 well plates using Perkin Elmer flexdrop. […] 5) 3 μl N HCl+27 μl 2 M Tris.Cl (pH7.9) was added using Perkin Elmer flexdrop, mixed by shaking, and fluorescence read with excitation at 492 nm and emission at 517 nm at room temperature in LJL Analyst AD.
A 1280 compound library (LOPAC^1280™, from Sigma-Aldrich) was screened in quadruplicate using the method set forth in Example 1. […] In these experiments, each compound was evaluated a total of four times—twice on one day and twice more on the following day. […]

Each structure is given as a SMILES string. Some results are limits rather than exact numbers.

T1 sequence (Q9HC16 whole entry): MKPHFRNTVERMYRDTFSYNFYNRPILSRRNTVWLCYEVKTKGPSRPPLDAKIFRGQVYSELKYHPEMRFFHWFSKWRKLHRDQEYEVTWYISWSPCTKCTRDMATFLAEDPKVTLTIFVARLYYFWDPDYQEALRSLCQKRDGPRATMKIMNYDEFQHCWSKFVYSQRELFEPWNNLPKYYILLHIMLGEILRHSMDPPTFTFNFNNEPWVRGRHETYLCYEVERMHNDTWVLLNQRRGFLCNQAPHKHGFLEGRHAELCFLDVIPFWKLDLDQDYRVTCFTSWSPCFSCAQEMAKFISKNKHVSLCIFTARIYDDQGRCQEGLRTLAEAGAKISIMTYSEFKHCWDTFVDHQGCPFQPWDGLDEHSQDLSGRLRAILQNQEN

As for `O=C(O)c1cc[c]([Hg][Cl])cc1` [4-chloromercuribenzoic acid], the “inhibited cytosine deaminase activity (FIG. 5)” value is recorded as “Inhibitors of cytosine deaminase”. Consider `O=C(O)C1=CC(=C(c2ccc(O)c(C(=O)O)c2)c2ccc(O)c(C(=O)O)c2)C=CC1=O` [ATA], for which the “inhibited cytosine deaminase activity (FIG. 5)” value is “Inhibitors of cytosine deaminase”. On the same count and under the same terms, the same measure for `Cc1nc(N=Nc2cc(S(=O)(=O)O)c3cc([N+](=O)[O-])cc(S(=O)(=O)O)c3c2)c(COP(=O)(O)O)c(C=O)c1O` [PPNDS]: “Inhibitors of cytosine deaminase”. In general, inhibition refers to the share of the control response that was lost under treatment. For `Cc1ccc(C(=O)Nc2ccc(S(=O)(=O)O)c3cc(S(=O)(=O)O)cc(S(=O)(=O)O)c23)cc1NC(=O)c1cccc(NC(=O)Nc2cccc(C(=O)Nc3cc(C(=O)Nc4ccc(S(=O)(=O)O)c5cc(S(=O)(=O)O)cc(S(=O)(=O)O)c45)ccc3C)c2)c1` [suramin], the inhibition at 10 µM (repeated screen, cell lysate incubated with 10 μM solution of the compound in DMSO, read-out: inhibition of fluorescence relative to positive controls (primary active)) was no less than 35%.
